Our source for the IC50 values is patent US20250034159A1, “INHIBITORS OF EPIDERMAL GROWTH FACTOR RECEPTOR” (ORIC Pharmaceuticals, Inc., priority 2021, published 2025).

Assay [1] addresses recombinant human EGFR L858R/C797S double mutant protein (Homo sapiens (Human), UniProt P00533, C797S/L858R). Briefly: Biological Activity Assay B: biochemical assay against EGFR L858R/C797S protein (EGFR LR/CS). In short, it runs like this: (§1)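 IC50 values were fitted with a 4-parameter model to reaction slopes taken from 90 kinetic reads spaced 120 s apart. The Phosphosens sensor/ATP working solution was 40 uM/4 mM, and compound was dosed as 16-point dilutions at 2.5% final DMSO.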

Assay [2] addresses recombinant human EGFR exon 19 deletion/C797S double mutant protein (Homo sapiens (Human), UniProt P00533, C797S/DEL746-750). Briefly: Biological Activity Assay C: biochemical assay against EGFR exon 19 deletion/C797S protein (EGFR d19/CS). The essentials: as §1
A further assay concerns BaF3_EGFR LR/CS cells. The assay is described as follows: Biological Activity Assay D: BaF3 cell proliferation assay, EGFR L858R/C797S mutant (BaF3 LR/CS). In kind it is cell-based. Particulars: Ba/F3 EGFR, read-out: BaF3 LR/CS IC50.
The subject of another assay is Ba/F3_EGFR WT cells. The assay is described as follows: Biological Activity Assay D: BaF3 cell proliferation assay, EGFR wild-type (BaF3 WT). Particulars: Ba/F3 EGFR, read-out: BaF3 WT IC50. The format is cell-based.
The subject of a further assay is BaF3_EGFR d19/CS cells. Briefly: Biological Activity Assay D: BaF3 cell proliferation assay, EGFR exon 19 deletion/C797S (BaF3 d19/CS). In kind it is cell-based. Particulars: Ba/F3 EGFR, read-out: BaF3 d19/CS IC50.
Where [3] appears, read: BaF3_EGFR LR/CS cells, ~72 hours, CellTiter-Glo.
Setting [4] is: Ba/F3_EGFR WT cells, ~72 hours, CellTiter-Glo.
Where [5] appears, read: BaF3_EGFR d19/CS cells, ~72 hours, CellTiter-Glo.

Like-named read-outs stand apart in the source and are kept apart here.

recombinant human EGFR L858R/C797S double mutant protein, sequence (P00533 25-1210 C797S/L858R): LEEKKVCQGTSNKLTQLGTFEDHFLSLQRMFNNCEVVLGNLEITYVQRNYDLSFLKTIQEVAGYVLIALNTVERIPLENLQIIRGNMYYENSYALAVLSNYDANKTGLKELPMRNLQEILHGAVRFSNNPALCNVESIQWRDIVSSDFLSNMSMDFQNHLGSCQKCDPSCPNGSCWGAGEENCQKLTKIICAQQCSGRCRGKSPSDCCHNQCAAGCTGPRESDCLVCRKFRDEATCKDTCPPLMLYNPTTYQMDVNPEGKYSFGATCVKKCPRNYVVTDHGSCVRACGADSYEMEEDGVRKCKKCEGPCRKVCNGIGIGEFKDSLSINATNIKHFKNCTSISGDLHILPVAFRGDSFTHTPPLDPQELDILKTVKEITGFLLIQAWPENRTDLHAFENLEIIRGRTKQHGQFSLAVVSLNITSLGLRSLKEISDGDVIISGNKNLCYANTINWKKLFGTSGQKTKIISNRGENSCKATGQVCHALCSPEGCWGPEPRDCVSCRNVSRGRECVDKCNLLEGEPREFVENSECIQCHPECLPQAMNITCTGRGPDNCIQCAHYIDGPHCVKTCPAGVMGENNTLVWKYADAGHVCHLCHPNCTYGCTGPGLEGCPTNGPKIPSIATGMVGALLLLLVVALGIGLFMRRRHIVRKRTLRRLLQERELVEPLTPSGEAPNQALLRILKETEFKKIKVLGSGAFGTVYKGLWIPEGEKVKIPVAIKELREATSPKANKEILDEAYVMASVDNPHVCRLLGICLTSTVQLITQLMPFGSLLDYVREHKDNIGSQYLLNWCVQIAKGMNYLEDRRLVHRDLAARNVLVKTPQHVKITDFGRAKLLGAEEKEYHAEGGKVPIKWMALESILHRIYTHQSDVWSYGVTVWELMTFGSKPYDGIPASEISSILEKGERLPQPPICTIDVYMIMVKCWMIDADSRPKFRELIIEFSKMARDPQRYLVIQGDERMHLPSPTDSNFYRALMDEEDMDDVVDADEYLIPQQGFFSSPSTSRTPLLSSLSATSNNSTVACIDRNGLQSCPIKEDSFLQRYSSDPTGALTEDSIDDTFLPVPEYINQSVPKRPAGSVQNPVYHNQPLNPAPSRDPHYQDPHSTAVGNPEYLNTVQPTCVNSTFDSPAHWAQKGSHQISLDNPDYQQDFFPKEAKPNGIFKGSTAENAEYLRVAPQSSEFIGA
recombinant human EGFR exon 19 deletion/C797S double mutant protein, sequence (P00533 other isoform, or with tags, fused parts or gaps C797S/del 1-668/del 746-750 limits assumed): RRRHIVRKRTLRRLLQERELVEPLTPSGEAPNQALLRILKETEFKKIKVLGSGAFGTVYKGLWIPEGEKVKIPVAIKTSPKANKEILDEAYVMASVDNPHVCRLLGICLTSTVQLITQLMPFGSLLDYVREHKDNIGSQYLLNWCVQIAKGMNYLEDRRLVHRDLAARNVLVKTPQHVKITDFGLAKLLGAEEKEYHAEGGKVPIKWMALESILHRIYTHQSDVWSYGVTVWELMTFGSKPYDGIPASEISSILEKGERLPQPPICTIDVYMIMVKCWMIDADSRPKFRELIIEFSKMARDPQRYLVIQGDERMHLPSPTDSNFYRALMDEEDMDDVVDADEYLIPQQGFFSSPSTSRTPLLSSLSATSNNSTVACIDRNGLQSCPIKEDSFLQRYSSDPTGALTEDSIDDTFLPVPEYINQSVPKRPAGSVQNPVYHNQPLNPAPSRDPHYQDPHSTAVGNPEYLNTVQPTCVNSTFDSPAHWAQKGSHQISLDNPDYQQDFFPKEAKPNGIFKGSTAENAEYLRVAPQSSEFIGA

In the case of `OCCn1cc(-c2ncnc3oc(-c4ccccc4)cc23)c(-c2ccc(F)cc2)n1` [Example 94, 2-[3-(4-Fluorophenyl)-4-(6-phenylfuro[2,3-d]pyrimidin-4-yl)-1H-pyrazol-1-yl]ethan-1-ol], the IC50 in assay [1] is 0.17 nM; in assay [2], 0.11 nM; in the assay with BaF3_EGFR LR/CS cells (72 h), 22.4 nM; in the assay with Ba/F3_EGFR WT cells (72 h), 1120 nM; in the assay with BaF3_EGFR d19/CS cells (72 h) it was 27.4 nM.

With `CC(C)(O)Cn1cc(-c2ncnc3oc(-c4ccccc4)cc23)c(-c2cccc(F)c2)n1` [Example 95, 1-[3-(3-Fluorophenyl)-4-(6-phenylfuro[2,3-d]pyrimidin-4-yl)-1H-pyrazol-1-yl]-2-methylpropan-2-ol], the IC50 in assay [1] was 0.75 nM; in assay [2] it was 0.32 nM; in the assay with BaF3_EGFR LR/CS cells (setting [3]) it was 116 nM; in the assay on Ba/F3_EGFR WT cells (setting [4]), 2090 nM; with BaF3_EGFR d19/CS cells (setting [5]) it was 95.2 nM.

`O=S1(=O)CC(Cn2cc(-c3ncnc4oc(-c5ccccc5)cc34)c(-c3ccc(F)cc3)n2)C1` [Example 98, 3-{[3-(4-fluorophenyl)-4-(6-phenylfuro[2,3-d]pyrimidin-4-yl)-1H-pyrazol-1-yl]methyl}-1λ6-thietane-1,1-dione]: the IC50 in assay [1] stood at 0.82 nM; in assay [2] it was 1.27 nM; with BaF3_EGFR LR/CS cells (setting [3]), 161 nM; in the assay on Ba/F3_EGFR WT cells (setting [4]) it was 1860 nM; in the assay on BaF3_EGFR d19/CS cells (setting [5]), 212 nM.

As to `CS(=O)(=O)NCCn1cc(-c2ncnc3oc(-c4ccccc4)cc23)c(-c2ccc(F)cc2)n1` [Example 103, N-{2-[3-(4-Fluorophenyl)-4-(6-phenylfuro[2,3-d]pyrimidin-4-yl)-1H-pyrazol-1-yl]ethyl}methanesulfonamide], the IC50 in assay [1] is 0.16 nM; in assay [2] it was 0.13 nM; in the assay on BaF3_EGFR LR/CS cells (setting [3]), 8.35 nM; with Ba/F3_EGFR WT cells (setting [4]) it was 229 nM; in the assay on BaF3_EGFR d19/CS cells (setting [5]), 17.5 nM.

With `O=S1(=O)CC(n2nc(-c3ccc(F)cc3)c(-c3ncnc4oc(-c5ccccc5)cc34)n2)C1` [Example 104, 3-[4-(4-Fluorophenyl)-5-(6-phenylfuro[2,3-d]pyrimidin-4-yl)-2H-1,2,3-triazol-2-yl]-1λ6-thietane-1,1-dione], the IC50 turned out to be 1.67 nM in assay [1]; 0.46 nM in assay [2]; 174 nM in the assay with BaF3_EGFR LR/CS cells (setting [3]); 10600 nM in the assay on Ba/F3_EGFR WT cells (setting [4]); 98 nM in the assay with BaF3_EGFR d19/CS cells (setting [5]).

In the case of `O=S1(=O)CCC(Cn2cc(-c3ncnc4oc(-c5ccccc5)cc34)c(-c3ccc(F)cc3)n2)CC1` [Example 105, 4-{[3-(4-fluorophenyl)-4-(6-phenylfuro[2,3-d]pyrimidin-4-yl)-1H-pyrazol-1-yl]methyl}-1λ6-thiane-1,1-dione], the IC50 in assay [1] turned out to be 0.75 nM; in assay [2], 1.69 nM; in the assay on BaF3_EGFR LR/CS cells (setting [3]), 136 nM; in the assay on Ba/F3_EGFR WT cells (setting [4]) it was 1700 nM; with BaF3_EGFR d19/CS cells (setting [5]), 152 nM.

In the case of `NC(=O)Cn1cc(-c2ncnc3oc(-c4ccccc4)cc23)c(-c2ccc(F)cc2)n1` [Example 106, 2-[3-(4-Fluorophenyl)-4-(6-phenylfuro[2,3-d]pyrimidin-4-yl)-1H-pyrazol-1-yl]acetamide], the IC50 in assay [1] turned out to be 0.45 nM; in assay [2] it was 0.38 nM; with BaF3_EGFR LR/CS cells (setting [3]), 55.7 nM; in the assay with Ba/F3_EGFR WT cells (setting [4]), 1020 nM; in the assay with BaF3_EGFR d19/CS cells (setting [5]), 64.7 nM.

Consider `Fc1ccc(-c2nn(C(F)F)cc2-c2ncnc3oc(-c4ccccc4)cc23)cc1` [Example 107, 4-[1-(difluoromethyl)-3-(4-fluorophenyl)-1H-pyrazol-4-yl]-6-phenylfuro[2,3-d]pyrimidine], for which the IC50 in assay [1] was 9.83 nM; in assay [2] it was 6.94 nM; in the assay with BaF3_EGFR LR/CS cells (setting [3]) it was 610 nM; in the assay with Ba/F3_EGFR WT cells (setting [4]), 3370 nM; with BaF3_EGFR d19/CS cells (setting [5]), 314 nM.

For the compound `CC(=O)N1CC=C(c2cc3c(-c4cn(C5CS(=O)(=O)C5)nc4-c4ccc(F)cc4)ncnc3o2)CC1` [Example 108, 3-{4-[6-(1-Acetyl-1,2,3,6-tetrahydropyridin-4-yl)furo[2,3-d]pyrimidin-4-yl]-3-(4-fluorophenyl)-1H-pyrazol-1-yl}-1λ6-thietane-1,1-dione], the IC50 was found to be 1.59 nM in assay [1]; 0.45 nM in assay [2]; 130 nM in the assay with BaF3_EGFR LR/CS cells (setting [3]); 1520 nM in the assay on Ba/F3_EGFR WT cells (setting [4]); 105 nM with BaF3_EGFR d19/CS cells (setting [5]).

For `CC(C)(O)Cn1cc(-c2ncnc3oc(-c4ccccc4)cc23)c(-c2ccccc2F)n1` [Example 109, 1-[3-(2-Fluorophenyl)-4-(6-phenylfuro[2,3-d]pyrimidin-4-yl)-1H-pyrazol-1-yl]-2-methylpropan-2-ol], the IC50 was 0.4 nM in assay [1]; 0.18 nM in assay [2]; 15.7 nM in the assay with BaF3_EGFR LR/CS cells (setting [3]); 667 nM in the assay on Ba/F3_EGFR WT cells (setting [4]); 23.6 nM with BaF3_EGFR d19/CS cells (setting [5]).

Regarding `CC(C)(O)Cn1cc(-c2ncnc3oc(-c4ccccc4)cc23)c(-c2ccccc2)n1` [Example 110, 2-Methyl-1-[3-phenyl-4-(6-phenylfuro[2,3-d]pyrimidin-4-yl)-1H-pyrazol-1-yl]propan-2-ol], the IC50 was found to be 0.69 nM in assay [1]; 0.33 nM in assay [2]; 68.7 nM in the assay on BaF3_EGFR LR/CS cells (setting [3]); 1380 nM in the assay with Ba/F3_EGFR WT cells (setting [4]); 83.1 nM in the assay on BaF3_EGFR d19/CS cells (setting [5]).

For `NS(=O)(=O)CCn1cc(-c2ncnc3oc(-c4ccccc4)cc23)c(-c2ccc(F)cc2)n1` [Example 111, 2-[3-(4-Fluorophenyl)-4-(6-phenylfuro[2,3-d]pyrimidin-4-yl)-1H-pyrazol-1-yl]ethane-1-sulfonamide], the IC50 was determined as 0.45 nM in assay [1]; 0.41 nM in assay [2]; 53.7 nM in the assay on BaF3_EGFR LR/CS cells (setting [3]); 1140 nM in the assay with Ba/F3_EGFR WT cells (setting [4]); 114 nM in the assay with BaF3_EGFR d19/CS cells (setting [5]).

Regarding `O=S1(=O)CC(Cn2ncc(-c3ncnc4oc(-c5ccccc5)cc34)c2-c2ccc(F)cc2)C1` [Example 112, 3-((5-(4-fluorophenyl)-4-(6-phenylfuro[2,3-d]pyrimidin-4-yl)-1H-pyrazol-1-yl)methyl)thietane 1,1-dioxide], the IC50 turned out to be 12.9 nM in assay [1]; 12.5 nM in assay [2]; 741 nM in the assay on BaF3_EGFR LR/CS cells (setting [3]); 7150 nM in the assay with Ba/F3_EGFR WT cells (setting [4]); 1150 nM in the assay with BaF3_EGFR d19/CS cells (setting [5]).

As to `COC1(CCn2cc(-c3ncnc4oc(-c5ccccc5)cc34)c(-c3ccc(F)cc3)n2)COC1` [Example 113, 4-{3-(4-fluorophenyl)-1-[2-(3-methoxyoxetan-3-yl)ethyl]-1H-pyrazol-4-yl}-6-phenylfuro[2,3-d]pyrimidine], the IC50 in assay [1] turned out to be 1.27 nM; in assay [2], 1.49 nM; in the assay on BaF3_EGFR LR/CS cells (setting [3]), 256 nM; with Ba/F3_EGFR WT cells (setting [4]), 2190 nM; in the assay on BaF3_EGFR d19/CS cells (setting [5]), 315 nM.

`CS(=O)(=O)N1CC(n2cc(-c3ncnc4oc(-c5ccccc5)cc34)c(-c3ccc(F)cc3)n2)C1` [Example 114, 4-{3-(4-fluorophenyl)-1-[1-(methanesulfonyl)azetidin-3-yl]-1H-pyrazol-4-yl}-6-phenylfuro[2,3-d]pyrimidine]: the IC50 in assay [1] was 1.62 nM; in assay [2], 0.55 nM; in the assay on BaF3_EGFR LR/CS cells (setting [3]) it was 132 nM; with Ba/F3_EGFR WT cells (setting [4]), 3320 nM; with BaF3_EGFR d19/CS cells (setting [5]), 137 nM.

On to `N#CCCCn1cc(-c2ncnc3oc(-c4ccccc4)cc23)c(-c2ccc(F)cc2)n1` [Example 116, 4-[3-(4-Fluorophenyl)-4-(6-phenylfuro[2,3-d]pyrimidin-4-yl)-1H-pyrazol-1-yl]butanenitrile], for which the IC50 was 0.37 nM in assay [1]; 0.23 nM in assay [2]; 22.9 nM with BaF3_EGFR LR/CS cells (72 h); 1510 nM in the assay on Ba/F3_EGFR WT cells (72 h); 47.6 nM with BaF3_EGFR d19/CS cells (72 h).
